Data as given in ChEMBL document CHEMBL1134572, “Specific inhibition of a family 1A dihydroorotate dehydrogenase by benzoate pyrimidine analogues” (J Med Chem, 2001).

How the values were obtained:
[1] = Inhibition constant against dihydroorotate dehydrogenase 1A (1A DHOD) from Lactococcus lactis
[2] = test system: Lactococcus lactis; assay: Inhibitory activity against family of dihydroorotate dehydrogenase 1A (1A DHOD) from Lactococcus lactis at 1 uMolar concentration; design: scale not given: the % may be the effect or the level left; details: 1 uM
[3] = Dissociation constant against dihydroorotate dehydrogenase 1A (1A DHOD) from Lactococcus lactis at 25 degrees C pH 8.0
[4] = Inhibition constant against 1A […] dehydrogenase (1A DHOD) from Lactococcus lactis
[5] = Dissociation constant against 1A […] dehydrogenase (1A DHOD) from Lactococcus lactis at 25 degrees C pH 8.0

SMILES: O=C(O)c1cc(O)cc(O)c1 [3,5-DIHYDROXYBENZOIC ACID]
- Ki [1]: 21 µM
- Activity [2]: 6%
- Kd [3]: 18.4 µM

SMILES: O=C(O)c1ccccc1O
- Activity [2]: 81%

SMILES: O=C(O)c1ccc(O)cc1
- Activity [2]: 92%

SMILES: O=C(O)c1ccc(O)c(O)c1 [PROTOCATECHUIC ACID]
- Ki [4]: 12 µM
- Activity [2]: 7%
- Kd [5]: 19 µM

SMILES: O=C(O)c1ccc(O)cc1O
- Activity [2]: 91%

SMILES: O=C(O)c1ccc(O)nc1
- Activity [2]: 94%
